Experimental data from patent publication US5968958A, “5-Methanesulfonamido-3H-isobenzofuran-1-ones as inhibitors of cyclooxygenase-2” (Merck Frosst Canada, Inc., priority 1997, dated 1999).
Like-named read-outs stand apart in the source and are kept apart here.

Legend:
cyclooxygenase-2 = target: T1, cyclooxygenase-2 (Homo sapiens, UniProt P35354); assay: Whole cell cyclooxygenase assay, PGE2 synthesis in human osteosarcoma 143 cells (COX-2); type: cell-based
T1 construct: human osteosarcoma 143 cells (which specifically express cyclooxygenase-2); endogenous in cells; host or cells: human osteosarcoma 143 cells
T1 sequence (P35354 18-604): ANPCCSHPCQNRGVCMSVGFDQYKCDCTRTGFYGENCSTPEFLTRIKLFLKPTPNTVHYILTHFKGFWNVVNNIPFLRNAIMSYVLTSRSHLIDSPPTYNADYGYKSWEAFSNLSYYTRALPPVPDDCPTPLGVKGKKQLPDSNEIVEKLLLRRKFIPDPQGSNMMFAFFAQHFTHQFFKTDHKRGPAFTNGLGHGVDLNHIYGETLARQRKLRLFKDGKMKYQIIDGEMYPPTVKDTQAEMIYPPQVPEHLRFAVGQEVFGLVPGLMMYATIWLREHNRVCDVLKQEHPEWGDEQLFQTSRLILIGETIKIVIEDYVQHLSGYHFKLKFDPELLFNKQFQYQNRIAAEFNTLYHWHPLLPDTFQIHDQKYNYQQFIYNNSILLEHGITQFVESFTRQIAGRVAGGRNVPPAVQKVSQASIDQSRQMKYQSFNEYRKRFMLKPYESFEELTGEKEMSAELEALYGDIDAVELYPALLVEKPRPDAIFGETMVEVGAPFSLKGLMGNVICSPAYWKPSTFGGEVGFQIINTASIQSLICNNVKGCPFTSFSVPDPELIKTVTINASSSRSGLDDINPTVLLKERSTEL
Procedure: (§1) Inhibition of Cyclooxygenase Activity
(§2) Compounds are tested as inhibitors of cyclooxygenase activity in whole cell cyclooxygenase assays. Both of these assays measure prostaglandin E2 synthesis in response to arachidonic acid, using a radioimmunoassay. Cells used for these assays are human osteosarcoma 143 cells (which specifically express cyclooxygenase-2) and human U-937 cells (which specifically express cyclooxygenase-1). In these assays, 100% activity is defined as the difference between prostaglandin E2 synthesis in the absence and presence of arachidonate.
(§3) In the assay, inhibition is determined by measuring the amount of prostaglandin E2 (PGE2) synthesized in the presence of arachidonic acid, cyclooxygenase-1 or cyclooxygenase-2 and a putative inhibitor. The IC50 values represent the concentration of putative inhibitor required to return PGE2 synthesis to 50% of that obtained as compared to the uninhibited control.

cyclooxygenase-1 = target: T2, cyclooxygenase-1 (Homo sapiens, UniProt P23219); assay: Whole cell cyclooxygenase assay, PGE2 synthesis in human U-937 cells (COX-1); type: cell-based; details: inhibition of PGE2 production, arachidonic acid, radioimmunoassay
T2 construct: human U-937 cells (which specifically express cyclooxygenase-1); endogenous in cells; host or cells: human U-937 cells
T2 sequence (P23219 24-599): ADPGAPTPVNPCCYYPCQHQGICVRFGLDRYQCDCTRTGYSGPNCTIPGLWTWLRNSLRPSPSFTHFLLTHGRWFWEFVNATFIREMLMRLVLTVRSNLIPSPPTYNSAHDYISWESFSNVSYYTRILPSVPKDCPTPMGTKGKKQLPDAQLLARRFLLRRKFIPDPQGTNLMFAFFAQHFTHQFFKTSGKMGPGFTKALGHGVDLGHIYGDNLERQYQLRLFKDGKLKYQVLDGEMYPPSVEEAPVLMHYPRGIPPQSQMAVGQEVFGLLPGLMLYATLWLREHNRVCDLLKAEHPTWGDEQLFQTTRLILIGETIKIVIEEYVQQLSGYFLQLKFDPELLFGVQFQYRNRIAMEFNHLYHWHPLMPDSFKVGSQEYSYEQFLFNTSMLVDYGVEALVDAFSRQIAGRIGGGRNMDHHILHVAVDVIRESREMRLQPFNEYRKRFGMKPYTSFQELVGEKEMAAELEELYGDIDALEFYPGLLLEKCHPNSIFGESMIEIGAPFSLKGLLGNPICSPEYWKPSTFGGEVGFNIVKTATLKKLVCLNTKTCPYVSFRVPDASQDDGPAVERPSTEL
Procedure: as §1, §2, §3

Rat Paw edema = assay: Rat Paw Edema Assay (carrageenan); type: in vivo, rat (male Sprague-Dawley); details: po, 1 hr before subplantar carrageenan (500 μg per paw), paw volume increase at 3 h
Procedure: Rat Paw Edema Assay--Protocol
Male Sprague-Dawley rats (150-200 g) are fasted overnight and are given po either vehicle (1% methocell or 5% Tween 80) or a test compound. One hr later, a line is drawn using a permanent marker at the level above the ankle in one hind paw to define the area of the paw to be monitored. The paw volume (V0) is measured using a plethysmometer (Ugo-Basile, Italy) based on the principle of water displacement. The animals are then injected subplantarly with 50 μl of 1% carrageenan solution in saline (FMC Corp, Maine) into the paw using an insulin syringe with a 25-gauge needle (i.e., 500 μg carrageenan per paw). Three h later, the paw volume (V3) is measured and the increases in paw volume (V3 -V0) are calculated. The animals are sacrificed by CO2 asphyxiation and the absence or presence of stomach lesions scored. Data is compared with the vehicle-control values and percent inhibition calculated. All treatment groups are coded to eliminate observer bias.

[1] = inhibition of PGE2 production, human osteosarcoma 143 cells, arachidonic acid, radioimmunoassay, read-out: Osteosarcoma cells (COX-2) IC50

Structure (SMILES)	IC50 (cyclooxygenase-2; [1]) [µM]	IC50 (cyclooxygenase-1) [µM]	ED30 (Rat Paw edema) [mg/kg]	IC50 (cyclooxygenase-2) [µM]
CS(=O)(=O)Nc1cc2c(cc1Sc1nccs1)C(=O)OC2 [Example 3, 6-(2-Thiazolythio)-5-methanesulfonamido-3H-isobenzofuran-1-one]	0.14	> 100		
Cc1csc(Sc2cc3c(cc2NS(C)(=O)=O)COC3=O)n1 [Example 4, 5-Methanesulfonamido-6-(4-methyl-2-thiazolythio)-3H-isobenzofuran-1-one]	0.0367	> 100	1	
CS(=O)(=O)Nc1cc2c(cc1Sc1ccc(Cl)cn1)C(=O)OC2 [Example 2, 6-(5-Chloro-2-pyridylthio)-5-methanesulfonamido-3H-isobenzofuran-1-one]	0.033	> 100	1.3	
CCc1csc(Sc2cc3c(cc2NS(C)(=O)=O)COC3=O)n1 [Example 1, 6-(4-Ethyl-2-thiazolythio)-5-methanesulfonamido-3H-isobenzofuran-1-one]		> 100	0.16	0.006
